Measured values published in US20240216476A1, “COMBINATION OF BITTER RECEPTOR AGONIST AND GUT-SIGNALING COMPOUND” (AARDVARK THERAPEUTICS, INC., priority 2021, published 2024).
Values joined by “and” are separate entries in the source; they are usually repeats but may differ in a detail not shown here. Identical values can stand only once. “Also recorded” adds a separate entry of the source. Like-named read-outs stand apart in the source and are kept apart here. Marks after values point to notes of the source that are not given here.

Assays:
[1] = in vivo; cited from earlier work
[2] = pig, in vivo; cited from earlier work
[3] = Appetite suppression effect of DA in animals; type: in vivo
Excerpt: Thus, twice daily dosing is preferred for abrogation of appetite throughout the day. […] Therefore, the preferred dosing for MetS treatment is QD.

[4] = tested on: high fat diet induced obese (DIO) mouse model; experiment: 4-week study of DA, liraglutide or their combination in high fat diet induced obese (DIO) mice (Example 2); type: in vivo
Method: After arrival at the testing facility, all animals were acclimated to the vivarium for a period no less than 3 days and placed on a 60% Fat Rodent Diet (D12492; Research Diets), 12:12 dark/light cycle and group housed, 2-3 in hepa-filtered cages. All treatments were continued for four weeks. During the study period, gross observation (animal behavior and clinical signs) was conducted, and body weight measurement was performed three times per week for each animal. At the end of the study, all animals were fasted overnight before measurements were taken for serum levels of glucose, insulin, hemoglobin A1c (HbA1c), low-density lipoprotein (LDL) cholesterol, high-density lipoprotein (HDL) cholesterol, triglyceride (TG), and bile acid (BA). Statistical analysis of data was performed using one tail Student's t-test on Excel.

[5] = tested on: ob/ob mice; experiment: DA in ob/ob mice fed with high-fat diet, 8 weeks (Table 10); type: in vivo, mouse; settings: DA 50 mg/kg BID for 8 weeks
Excerpt: The data for the DPP-4 inhibitors was obtained from J. Clin. Biochem. Nutr. 2015; 57(3):244-53. Acta Pharmacol. Sin. 2012; 33(8): 1013-22. J. Pharmacol. Exp. Ther. 2012; 342(1): 71-80; and Eur. J. Pharmacol. 2008; 588(2-3):325-32.

[6] = tested on: gut peptide hormones GLP-1, GLP-2 and PYY; experiment: Phase 1 clinical trial of DA: gut peptide hormones before and one hour after a single oral dose (Example 3); type: in vivo, human; settings: in words, single dose DA 240 mg tablet vs placebo
Method: This Example provides data of three gut peptide hormones from a phase 1 clinical trial of denatonium acetate after a single dose of DA at 240 mg in a tablet in the formulation disclosed herein. The subjects were either placebo or 240 mg DA and blood samples were taken just prior to dosing and one hour after oral dosing.

[7] = human, in vivo, po
Excerpt: Accordingly, the gut peptide hormone data in both the in vivo studies in the examples herein and the phase 1 clinical trial data in Example 3 show synergy for the treatment and/or management of glucagon-related diseases, disorders or conditions, various indications. […] The clinical data also corroborated the DIO mouse data (Example 2). Yet, the marketers of GLP-1 agonists (like those available from Novo Nordisk, Lilly) claim only GLP-1 is important for both diabetes and weight loss. Also, DPP-4 is an enzyme that degrades GLP-1 and PYY to give both of those hormones short half-lives. Accordingly, in some embodiments herein, a DPP-4 inhibitor is used as part of the API combination.
Therefore, both the pharmacokinetic data in a clinical trial (Example 3) for DA and the pharmacokinetic data published for commercially-marketed sitagliptin, support non-cumulative toxicity risk. Accordingly, DPP-4i drugs and the denatonium salts listed herein are an effective oral combination for the treatment of obesity.
For sitagliptin as a single agent, the current guidelines indicate a daily dose of 100 mg PO QD (notwithstanding for those with renal impairment, recommended doses can be as low as 25 mg to 50 mg PO QD). […] In view of DA's pharmacokinetics (substantial gut restriction) and relatively non-toxic nature, the optimal dose ranges can be safely adjusted higher. […]

[8] = tested on: high-fat diet-induced obese (DIO) mice; type: in vivo; settings: in words
Method: This Example provides the results from an in vivo study of denatonium acetate and sitagliptin in high-fat diet-induced obese (DIO) mice. C57BL/6NTac mice (at least 12 weeks of age) were fed with a high fat diet. All mice were dosed orally by gavage as (a) Vehicle group (N=15) dosed with distilled water BID, (b) DA group (N=15) dosed at 75 mg/kg (denatonium weight) BID; (c) sitagliptin group (N=15) dosed by gavage with 10 mg/kg QD; and (d) DA+ sitagliptin group (N=15) treated with DA at 75 mg/kg (denatonium based weight) BID and sitagliptin at 10 mg/kg by gavage QD. The groups were dosed for 8 weeks followed by a 5-7 day […] period. Body weight and body weight changes were measured three times per week. Serum biomarker levels for blood glucose (after fasting 6-8 hours), blood insulin, percentage of blood HvA1c, HDL, LDL, total triglycerides (TG), total cholesterol (TC) and bile acid were measured twice during the study at day 28 and at the end (day 56) of the study. Cumulative food intake and water consumption for each animal was measured.

[9] = tested on: AMLN-diet induced mice (fatty liver disease/NASH model); type: in vivo; settings: in words
Excerpt: This Example provides the results obtained from an in vivo mouse model of fatty liver disease treatment to investigate the therapeutic effect of DA on the treatment of NASH versus positive control semaglutide (a GLP-1 agonist marketed drug for lowering HbA1c). This study used a positive control semaglutide, a vehicle control, study drug DA and a combination of semaglutide and DA. Mouse strain (B6 mice) was used, and the animals were already adults (23 weeks old) when the study began because the animals were already fed an AMLN diet for 17 weeks prior to the study being initiated. The study dose began at 75 mg/kg BID.
The study included 3 groups of 10 mice each, (A) vehicle control with distilled water by gavage BID, (B) DA by gavage BID, and (C) semaglutide […] sc QD. Body weights and changes were measured 3× per week. Serum metabolic markers (blood glucose, blood insulin, HbA1c, HDL, LDL triglycerides and bile acids) were measured at beginning of dosing (baseline) and end of study. At the end of the study, histopathology of liver samples and serum levels of inflammatory biomarkers (IL-6, TNFα, CK-18 and TGF-β) were evaluated. Histopathology was performed blindly with a scoring scale according to NAFLD Activity Score and Fibrosis Score according to Table 13. Table 14 identifies the kits and equipment used to measure serum parameters.

[10] = tested on: C57Bl/6J mice fed with high-fat diet; experiment: DA in C57Bl/6J mice fed with high-fat diet, 8 weeks (Table 11); type: in vivo, mouse
Excerpt: Similarly, Table 11 provides a comparison of denatonium acetate (DA) with DPP-4 inhibitors in similar ob/ob mice model. The data for the DPP-4 inhibitors was obtained from Am. J. Physiol. Endocrinol. Metab. 2011; 300(2); E410-E421. Biochim. Biophys. Acta Gen. Subj. 2018; 1862(3):403-413. PLOS One. 2012; 7(6):e38744; and Aging Cell. 2019; 18(2):e12883.

[11] = in vivo; cited from earlier work; remark: listed apart in the source
[12] = each animal, end of study (Day 31), DA 75 mg/kg PO BID, liraglutide 200 μg/kg SC BID, 4-week dosing
[13] = group mean, end of study (Day 31), DA 75 mg/kg PO BID, liraglutide 200 μg/kg SC BID, 4-week dosing
[14] = in words, vs vehicle, Day 31, DA 75 mg/kg PO BID, liraglutide 200 μg/kg SC BID
[15] = in words, Day 31, 4-week dosing

Compound: PYY: gut peptide hormone released from L-cells
- half-life [1]: 9 to 14 min

Compound: PYY (3-36): DPP-4 cleaved form of the gut peptide hormone PYY
- half-life [2]: < 30 min

Compound: CC(=O)[O-].CC[N+](CC)(CC(=O)Nc1c(C)cccc1C)Cc1ccccc1 [DA, denatonium acetate]
- duration of observed appetite suppression effect [3]: about 8 hours
- Body Weight Gain [4, 12]: 10.1 g and 6.7 g and 7.2 g (3×) and 9.6 g (2×) and 7.4 g and 5.2 g and 7 g and 8.1 g and 6.9 g and 11.2 g and 4.5 g and 7.5 g
- Serum TG Level [4, 12]: 13.06 mmol/L and 13.49 mmol/L and 11.69 mmol/L and 13.35 mmol/L and 18.18 mmol/L and 14.27 mmol/L and 15.38 mmol/L and 12.93 mmol/L and 15.46 mmol/L and 19.24 mmol/L and 11.73 mmol/L and 15.13 mmol/L and 13.72 mmol/L and 13.59 mmol/L and 15.48 mmol/L
- Body Weight Gain, Mean [4, 13]: 7.69 g
- Serum TG Level, Mean [4, 13]: 14.45 mmol/L
- serum BA level ([4]; in words, vs vehicle control, Day 31, 4-week dosing): significant increase in serum BA level
- Body Weight Gain [4, 14]: significantly reduced
- Serum TG Level [4, 14]: significantly decreased serum TG level
- serum HbA1c level [4, 15]: did not show significant effect
- serum LDL level [4, 15]: no significant difference in serum LDL level
- serum glucose level [4, 15]: significantly decreased serum glucose level
- serum insulin level [4, 15]: considerably decreased serum insulin level
- Control-adjusted Percent Change in Fasting Blood Glucose [5]: −29.3%*
- Control-adjusted Percent Change in HbA1c Level [5]: +0.8%
- Control-adjusted Percent Change in Insulin Level [5]: +4.3%
- Control-adjusted Percent Change in LDL Level [5]: −27.5%*
- Control-adjusted Percent Change in TG Level [5]: −21.2%*
- percent change for GLP-1 between time 0 and one hour after oral dosing [6]: the difference was significant
- GLP-2 gut peptide hormone ([6]; one hour after dosing): trend for GLP-2 gut peptide hormone increase
- PYY gut peptide hormone ([6]; one hour after dosing): trend for PYY gut peptide hormone increase
- gut-restricted [7]: ~99%
- safe dosing in phase 1 clinical trial [7]: safely dosed to 240 mg PO BID
- fasting blood glucose levels ([8]; vs vehicle controls, day 28 and day 56): significantly decreased fasting blood glucose levels
- high-density lipoprotein (HDL) levels ([8]; vs vehicle controls, day 56 (FIG. 22B)): significantly decreased high-density lipoprotein (HDL) levels
- weight loss ([8]; 56-day study summary): significant weight loss; also recorded: statistically significant reduction of weight in the DA group versus the sitagliptin group
- effect on body weight (relative body weight percentage and relative body weight change) ([8]; DA 75 mg/kg BID, sitagliptin 10 mg/kg QD by gavage, 8 weeks): much greater effect on body weight
- effect on body weight ([8]; day 56): significant effect on body weight
- translationally relevant biomarkers (blood glucose, HbA1C, insulin, triglycerides, LDL cholesterol, total cholesterol) ([8]; relative to sitagliptin alone): superior benefit relative to sitagliptin alone
- NAFLD Activity Score based on blinded histopathologic review ([9]; 12 weeks, DA 75 then 50 mg/kg BID by gavage, semaglutide 10 mmol/kg sc QD): significantly improved NAFLD Activity Score
- body weight and body weight change ([9]; 12 weeks, DA 75 then 50 mg/kg BID, semaglutide 10 mmol/kg sc QD): remarkable effect on body weight
- HDLs ([9]; end of study): significantly decreased
- LDLs ([9]; end of study): significantly decreased
- TGs ([9]; end of study): significantly decreased
- Control-adjusted Percent Change in Body Weight Gain ([10]; DA 75 mg/kg BID for 8 weeks): −33.9%*
- Control-adjusted Percent Change in Fasting Blood Glucose ([10]; DA 75 mg/kg BID for 8 weeks): −5.3%
- Control-adjusted Percent Change in GLP-1 Level ([10]; DA 75 mg/kg BID for 8 weeks): +27.5%*
- Control-adjusted Percent Change in Insulin Level ([10]; DA 75 mg/kg BID for 8 weeks): −42.9%
- Control-adjusted Percent Change in Lipid Levels: LDL ([10]; DA 75 mg/kg BID for 8 weeks): −18.3% in LDL
- Control-adjusted Percent Change in HbA1c Level ([10]; DA 75 mg/kg BID, at the end of Week 4): −3.7%* (at the

Compound: O=C1[C@H](CC[C@H](O)c2ccc(F)cc2)[C@@H](c2ccc(O)cc2)N1c1ccc(F)cc1 [Ezetimibe]
- reduction of LDL cholesterol [11]: about 18%
